Measurements taken from patent publication EP0189755A1, “Pharmaceutical composition” (F. HOFFMANN-LA ROCHE AG, priority 1985, dated 1986).

Tests used:
P388 leukemia cells = test: Antitumor effects against intraperitoneally implanted P388 leukemia in mice (increase in life span, survival, body weight); conditions: for dose ILS30: dose of 5'-DFUR or 5-FU giving ILS30; for dose ILS30 / dose ILSmax: GMP 100 mg/kg/day in the combinations, unit not given in Table 4; for dose ILSmax: dose of 5'-DFUR or 5-FU giving ILSmax
Method: BDF1 male mice weighing 21 to 23 g were used as experimental animals. P388 leukemia cells were implanted intraperitoneally into the mice. Seven days after the implantation, ascites were collected and diluted with saline to prepare the suspension containing 10^6 P388 leukemia cells in 0.05 ml. The mice were intraperitoneally implanted on day 0 with 10^6 P388 cells. Each group contained 6 mice. 5'-DFUR and GMP were dissolved in saline, alone or combined with each other. The test compounds were administered intraperitoneally from day 1 to day 5. The antitumor effects were evaluated by the increase in life span over control (ILS) calculated by the following formula: [formula] T: Mean survival time (days) in the test drug groups C: Mean survival time (days) in the control group administered intraperitoneally with saline alone
The safety of the drug was evaluated by the therapeutic ratio; the dose ILSmax / the dose ILS30.
In a manner analogous to that described in (1) above except that 5'-DFCR was used instead of 5'-DFUR, the antitumor effects thereof was tested as a referential example.

Acute toxicity = assay type: in vivo, male ICR mice
Method: Groups of 5 weeks old male ICR mice were treated intraperitoneally with 5'-DFUR and GMP at the dosage given in the- following Table 6. Each mice group contained 5 mice. Two weeks after, the number of died mice were counted.

[1] = 5'-DFCR 28 mg/kg/day, without GMP
[2] = 5'-DFCR 55 mg/kg/day, without GMP
[3] = 5'-DFCR 110 mg/kg/day, without GMP
[4] = 5'-DFCR 220 mg/kg/day, without GMP

In the case of `O=c1[nH]cc(F)c(=O)[nH]1` [5-FU, 5-fluorouracil], the “dose ILS30” value (P388 leukemia cells) is reported as 0.75 and the “dose ILSmax” value (P388 leukemia cells) is reported as 20.

In the case of `Nc1ncnc2c1ncn2[C@@H]1O[C@H](COP(=O)(O)O)[C@@H](O)[C@H]1O` [AMP, adenosine-5'-monophosphate], the “Survival days (mean±SD)” value (P388 leukemia cells; nucleotide alone 100 mg/kg/day) is reported as 9.5 ± 1.9 days and the T/C (P388 leukemia cells; nucleotide alone 100 mg/kg/day) is reported as 99%.

In the case of `C[C@H]1O[C@@H](n2cc(F)c(=O)[nH]c2=O)[C@H](O)[C@@H]1O` [5'-DFUR, 5'-deoxy-5-fluorouri-dine], the “Survival days (mean±SD)” value (P388 leukemia cells; 5'-DFUR 250 mg/kg/day) is reported as 13.3 ± 0.8 days, the T/C (P388 leukemia cells; 5'-DFUR 250 mg/kg/day) is reported as 139% and the ILS (P388 leukemia cells; 5'-DFUR alone 2 mg/kg/day i.p., day 1 to day 5) is reported as 0%. The ILS (P388 leukemia cells; 5'-DFUR alone 4 mg/kg/day i.p., day 1 to day 5) was 1%, the ILS (P388 leukemia cells; 5'-DFUR alone 8 mg/kg/day i.p., day 1 to day 5) was 8% and the ILS (P388 leukemia cells; 5'-DFUR alone 16 mg/kg/day i.p., day 1 to day 5) was 15%. It also gave an ILS (P388 leukemia cells; 5'-DFUR alone 32 mg/kg/day i.p., day 1 to day 5) of 21%, an ILS (P388 leukemia cells; 5'-DFUR alone 63 mg/kg/day i.p., day 1 to day 5) of 21% and an ILS (P388 leukemia cells; 5'-DFUR alone 125 mg/kg/day i.p., day 1 to day 5) of 31%. For the same compound, the ILS (P388 leukemia cells; 5'-DFUR alone 250 mg/kg/day i.p., day 1 to day 5) was 48%, the ILS (P388 leukemia cells; 5'-DFUR alone 500 mg/kg/day i.p., day 1 to day 5) was 24% and the “dose ILS30” value (P388 leukemia cells) was 125. For the same compound, the “dose ILSmax” value (P388 leukemia cells) was 250, the ILSmax (P388 leukemia cells; dose series of 5'-DFUR i.p., GMP at 100 mg/kg/day in the combination group) was 48% and the “number of died mice/number of tested mice” value (Acute toxicity; mouse, in vivo) was 0/5.

`Nc1nc2c(ncn2[C@@H]2O[C@H](COP(=O)(O)O)[C@@H](O)[C@H]2O)c(=O)[nH]1` [GMP, guanosine-5'-monophosphate] gave an ILS (P388 leukemia cells; GMP alone 100 mg/kg/day i.p. (5'-DFUR 0)) of -3%, an ILS (P388 leukemia cells; GMP alone 300 mg/kg/day i.p. (5'-DFUR 0)) of 5% and an ILS (P388 leukemia cells; GMP alone 500 mg/kg/day i.p. (5'-DFUR 0)) of 8%. For the same compound, the ILS (P388 leukemia cells; GMP alone 1000 mg/kg/day i.p. (5'-DFUR 0)) was 1%, the “influence on ILS” value (P388 leukemia cells; GMP alone (Table 3)) was “no influence observed” and the “Survival days (mean±SD)” value (P388 leukemia cells; nucleotide alone 100 mg/kg/day) was 8.8 ± 0.8 days. The T/C (P388 leukemia cells; nucleotide alone 100 mg/kg/day) was 92%, the “number of died mice/number of tested mice” value (Acute toxicity; GMP 2000 mg/kg, 5'-DFUR 0, intraperitoneally, counted two weeks after) was 0/5 and the “number of died mice/number of tested mice” value (Acute toxicity; GMP 4000 mg/kg, 5'-DFUR 0, intraperitoneally, counted two weeks after) was 1/5.

In the case of `C[C@H]1O[C@@H](n2cc(F)c(N)nc2=O)[C@H](O)[C@@H]1O` [5'-DFCR], the “Survival days (mean±SD)” value (P388 leukemia cells; [1]) is reported as 10.7 ± 1.5 days, the T/C (P388 leukemia cells; [1]) is reported as 111% and the “Survival days (mean±SD)” value (P388 leukemia cells; [2]) is reported as 10.0 ± 1.7 days. For the same compound, the T/C (P388 leukemia cells; [2]) was 104%, the “Survival days (mean±SD)” value (P388 leukemia cells; [3]) was 10.3 ± 0.5 days and the T/C (P388 leukemia cells; [3]) was 107%. The “Survival days (mean±SD)” value (P388 leukemia cells; [4]) was 12.0 ± 1.7 days and the T/C (P388 leukemia cells; [4]) was 125%.
